According to ChEMBL document CHEMBL6092194, “Development of membrane-targeting chalcone derivatives as antibacterial agents against multidrug-resistant bacteria” (Eur J Med Chem, 2024):
Calls of active or inactive are those of the source. No cut-off for these calls is given here.

Columns and labels:
[1] = Selectivity index, ratio of HC50 for hemolytic activity in red blood cells (unknown origin) to MIC for antibacterial activity against penicillin-resistant Staphylococcus aureus ATCC43300; type: toxicity, cell-based, RBC; details: read-out: Selectivity Index
Acinetobacter baumannii = test: Antibacterial activity against Acinetobacter baumannii ATCC19606 by broth microdilution assay; type: functional
[2] = Cytotoxicity against human L02 cells by CCK8 assay; type: toxicity, cell-based
Bacillus subtilis = test: Antibacterial activity against penicillin-susceptible Bacillus subtilis ATCC9372 by broth microdilution assay; type: functional
Escherichia coli [3] = test: Antibacterial activity against Escherichia coli ATCC25922 infected in sepsis mouse model assessed as reduction in inflammatory cell infiltration in liver at 10 mg/kg pre-infected with bacteria for 1 hrs followed by compound administration at 12 hrs interval for 2 days by H and E staining based analysis; type: functional, organism-based; details: time 2.0 day
Klebsiella pneumoniae = test: Antibacterial activity against Klebsiella pneumoniae ATCC10031 by broth microdilution assay; type: functional
[4] = Ratio of MBC for Staphylococcus aureus ATCC43300 measured after 6 hrs in presence of 50% plasma to MBC for Staphylococcus aureus ATCC43300 in Mueller Hinton Broth; type: functional
[5] = Hemolytic activity in red blood cells (unknown origin); type: toxicity, cell-based, Erythrocyte
Cell membrane [6] = test: Induction of inner membrane permeabilization in Staphylococcus aureus ATCC43300 assessed as fold increase in fluorescence intensity at 8 microg/ml incubated for 20 mins by PI uptake assay relative to negative control; type: subcellular; details: dose 8.0 µg/ml
Cell membrane [7] = test: Induction of outer membrane permeabilization in Escherichia coli ATCC25922 assessed as increase in fluorescence intensity incubated for 20 mins by NPN uptake assay; type: subcellular; details: dose 0.5-8 µg/ml
Staphylococcus aureus [8] = test: Antibiofilm activity against Staphylococcus aureus ATCC43300 assessed as inhibition of biofilm formation at 16 microg/ml relative to control; type: functional
Escherichia coli [9] = test: Antibacterial activity against Escherichia coli ATCC25922 measured after 20 passages; type: functional, organism-based
Escherichia coli [10] = test: Ratio of MBC for Escherichia coli ATCC25922 in presence of 50% blood to MBC for Escherichia coli ATCC25922 in Mueller Hinton Broth; type: functional
Escherichia coli [11] = test: Antibacterial activity against Escherichia coli ATCC25922 infected in sepsis mouse model assessed as reduction in kidney damage at 5 to 10 mg/kg pre-infected with bacteria for 1 hrs followed by compound administration at 12 hrs interval for 2 days by H and E staining based analysis; type: functional, organism-based; details: dose 5-10 mg/kg, time 2.0 day
Cell membrane [12] = test: Induction of cytoplasmic membrane depolarization in Staphylococcus aureus ATCC43300 assessed as increase in fluorescence intensity at 8 microg/ml measured after 24 mins by DiSC3(5) dye-based fluorescence assay; details: dose 8.0 µg/ml
Cell membrane [13] = test: Induction of cytoplasmic membrane depolarization in Staphylococcus aureus ATCC43300 assessed as increase in fluorescence intensity measured after 24 mins by DiSC3(5) dye-based fluorescence assay; details: dose 0.5-8 µg/ml
Escherichia coli [14] = test: Antibiofilm activity against Escherichia coli ATCC25922 assessed as inhibition of biofilm formation at 8 microg/ml relative to control; type: functional
Escherichia coli [15] = test: Bactericidal activity against Escherichia coli ATCC25922 in presence of 50% plasma; type: functional
Escherichia coli [16] = test: Antibacterial activity against Escherichia coli ATCC25922 infected in sepsis mouse model assessed as log reduction in bacterial load in liver at 5 mg/kg pre-infected with bacteria for 1 hrs followed by compound administration at 12 hrs interval for 2 days relative to control; type: functional; details: time 2 day
Escherichia coli [17] = test: Induction of morphological changes in Escherichia coli ATCC25922 assessed as rough appearance of cell membrane by scanning electron microscopic analysis; type: functional, organism-based
Escherichia coli [18] = test: Bactericidal activity against Escherichia coli ATCC25922 in presence of 50% blood; type: functional
Staphylococcus aureus [19] = test: Antibacterial activity against Staphylococcus aureus ATCC43300 infected in sepsis mouse model assessed as log reduction in bacterial load in spleen at 10 mg/kg pre-infected with bacteria for 1 hrs followed by compound administration at 12 hrs interval for 2 days relative to control; type: functional; details: time 2 day
Escherichia coli [20] = test: Antibacterial activity against Escherichia coli ATCC25922 infected in sepsis mouse model assessed as reduction in liver damage at 5 to 10 mg/kg pre-infected with bacteria for 1 hrs followed by compound administration at 12 hrs interval for 2 days by H and E staining based analysis; type: functional, organism-based; details: dose 5-10 mg/kg, time 2.0 day
Escherichia coli [21] = test: Antibacterial activity against Escherichia coli ATCC25922 infected in sepsis mouse model assessed as reduction in liver inflammation at 5 to 10 mg/kg pre-infected with bacteria for 1 hrs followed by compound administration at 12 hrs interval for 2 days by H and E staining based analysis; type: functional, organism-based; details: dose 5-10 mg/kg, time 2.0 day
Escherichia coli [22] = test: Bactericidal activity against Escherichia coli ATCC25922 assessed as log reduction in bacterial colony at 8 times of MIC measured after 6 hrs by time-kill kinetics assay; type: functional
Cell membrane [23] = test: Disruption of cell membrane in Escherichia coli ATCC25922 assessed as increase in intracellular ROS level by DCFH-DA staining based fluorescence analysis; details: dose 1-8 µg/ml
Staphylococcus aureus [24] = test: Antibacterial activity against Staphylococcus aureus ATCC43300 infected in sepsis mouse model assessed as log reduction in bacterial load in liver at 5 mg/kg pre-infected with bacteria for 1 hrs followed by compound administration at 12 hrs interval for 2 days relative to control; type: functional; details: time 2 day
Escherichia coli [25] = test: Antibiofilm activity against Escherichia coli ATCC25922 assessed as inhibition of biofilm formation at 1 microg/ml relative to control; type: functional
Cell membrane [26] = test: Induction of cytoplasmic membrane depolarization in Escherichia coli ATCC25922 assessed as fold increase in fluorescence intensity at 8 microg/ml measured within 24 mins by DiSC3(5) dye-based fluorescence assay relative to negative control; type: subcellular; details: dose 8.0 µg/ml
Escherichia coli [27] = test: Bactericidal activity against Escherichia coli ATCC25922 in Mueller Hinton Broth; type: functional
Cell membrane [28] = test: Disruption of cell membrane in Staphylococcus aureus ATCC43300 assessed as fold increase in DNA leakage at 8 microg/ml relative to control; type: subcellular; details: dose 8.0 µg/ml
[29] = Selectivity index, ratio of HC50 for hemolytic activity in red blood cells (unknown origin) to MIC for antibacterial activity against penicillin-susceptible Escherichia coli ATCC25922; type: toxicity, cell-based, RBC; details: read-out: Selectivity Index
[30] = tested on: Staphylococcus epidermidis; test: Antibacterial activity against erythromycin-susceptible Staphylococcus epidermidis ATCC12228 by broth microdilution assay; type: functional
Cell membrane [31] = test: Disruption of cell membrane in Staphylococcus aureus ATCC43300 assessed as fold increase in protein leakage at 8 microg/ml relative to control; type: subcellular; details: dose 8.0 µg/ml
Staphylococcus aureus [32] = test: Antibiofilm activity against Staphylococcus aureus ATCC43300 assessed as inhibition of biofilm formation at 1 microg/ml relative to control; type: functional
Escherichia coli [33] = test: Bactericidal activity against Escherichia coli ATCC25922 measured upto 24 hrs by time-kill kinetics assay; type: functional, organism-based; details: dose 1-8 µg/ml
Staphylococcus aureus [34] = test: Antibiofilm activity against Staphylococcus aureus ATCC43300 assessed as inhibition of biofilm formation at 8 microg/ml relative to control; type: functional
Staphylococcus aureus [35] = test: Bactericidal activity against Staphylococcus aureus ATCC43300 assessed as elimination of bacteria at 8 microg/ml measured within 4 hrs by time-kill kinetics assay relative to control; type: functional; details: dose 8 µg/ml
[36] = Ratio of MBC for Escherichia coli ATCC25922 measured after 6 hrs in presence of 50% plasma to MBC for Escherichia coli ATCC25922 in Mueller Hinton Broth; type: functional

Compound `CCCCCCOc1cc[n+](CCCOc2ccc(/C=C/C(=O)c3ccc(OCCC[n+]4ccc(OCCCCCC)cc4)cc3)cc2)cc1.[Br-].[Br-]` has a selectivity ratio [1] of 659, an MIC (Acinetobacter baumannii) of 16 µg/mL and a CC50 [2] of 25.9 µg/mL. The MIC (Bacillus subtilis) was 1 µg/mL, the Activity (Escherichia coli [3]) was “inactive” and the MIC (Klebsiella pneumoniae) was 1 µg/mL. The Ratio [4] was <4, the HC50 [5] was 329 µg/mL and the fold change (FC) (Cell membrane [6]) was 1.5. The Activity (Cell membrane [7]) was “Dose-dependent-effect”, the inhibition at 16 µg/mL (Staphylococcus aureus [8]) was 90.9% and the Activity (Escherichia coli [9]) was “Active”. For the same compound, the Ratio (Escherichia coli [10]) was < 2, the Activity (Escherichia coli [11]) was “Active” and the Activity (Cell membrane [12]) was “Active; Fluorescence Intensity Surpassed The Melittin Group”. The Activity (Cell membrane [13]) was “Dose-dependent-effect”, the inhibition at 8 µg/mL (Escherichia coli [14]) was 48.7% and the MBC (Escherichia coli [15]) was 8 µg/mL. The “log(activity)” value (Escherichia coli [16]) was 2.52, the Activity (Escherichia coli [17]) was “Active” and the MIC (Escherichia coli [18]) was 32 µg/mL. The “log(activity)” value (Staphylococcus aureus [19]) was 1.52, the Activity (Escherichia coli [20]) was “Active” and the Activity (Escherichia coli [21]) was “Active”. The “log(activity)” value (Escherichia coli [22]) was 8.31, the Activity (Cell membrane [23]) was “Dose-dependent-effect” and the “log(activity)” value (Staphylococcus aureus [24]) was 0.91. For the same compound, the inhibition at 1 µg/mL (Escherichia coli [25]) was 12.3%, the fold change (FC) (Cell membrane [26]) was 7.5 and the MBC (Escherichia coli [27]) was 8 µg/mL. The fold change (FC) (Cell membrane [28]) was 12, the selectivity ratio [29] was 329 and the MIC [30] was 0.5 µg/mL. For the same compound, the fold change (FC) (Cell membrane [31]) was 7.5, the inhibition at 1 µg/mL (Staphylococcus aureus [32]) was 6.91% and the Activity (Escherichia coli [33]) was “Dose-dependent-effect”. The inhibition at 8 µg/mL (Staphylococcus aureus [34]) was 90.8%, the Activity (Staphylococcus aureus [35]) was “>=99.9%” and the Ratio [36] was <4.
